# Assay results taken from article PMC8262356, “SLC26A6-selective inhibitor identified in a small-molecule screen blocks fluid absorption in small intestine” (JCI Insight, 2021).
# Test system: TMEM16A
# Assay: Selectivity: I- influx in FRT cells coexpressing YFP and TMEM16A
# Format: cell-based
# Details: 25 μM
# Procedure: PAT1inh-B01 selectivity was studied by testing its effects on related SLC26A family anion transporters and the Cl^– channel TMEM16A. These measurements used a similar Cl^–/I^– exchange protocol, but FRT cells separately expressed each of the SLC26A family members or TMEM16A. […] PAT1inh-B01 selectivity was also tested by short-circuit current (Isc) in well-differentiated human bronchial epithelial (HBE) cells, which have a complex ion transport mechanism that includes cystic fibrosis transmembrane conductance regulator (CFTR), epithelial Na^+ channel (ENaC), and Ca^+2-activated chloride channels (CaCCs) ([13]). […] Potential PAT1inh-B01 cytotoxicity was studied in FRT cells.
# Figure 3 PAT1inh-B01 selectivity and cytotoxicity. […] Cl^–/I^– exchange or I^– influx measured in FRT cells coexpressing YFP and SLC26A isoforms or TMEM16A, with data shown for 25 μM PAT1inh-B01, DMSO vehicle control, and 500 μM niflumic acid (positive control for SLC26A transporters) or 10 μM TMinh-23 (positive control for TMEM16A). […] (C) (left) Short-circuit current (Isc) in well-differentiated HBE cells measured in the absence (top) and presence (bottom) of 25 μM PAT1inh-B01. […]
# YFP-based cellular assays of slc26a3, slc26a4, SLC26A9, and TMEM16A function were performed as described previously ([7]). […] The activities of ENaC, CFTR, and CaCC were determined using well-differentiated HBE cells as described previously ([13]). […]
smiles,measurement,value
Cc1c(Br)c(C(F)(F)F)nn1CC(=O)N1CCc2nc3cc(-c4ccccc4)[nH]n3c(=O)c2C1 [PAT1inh-B01],inhibition of TMEM16A,did not significantly inhibit
